In patent publication US8304447B2, “2-acylaminopropoanol-type glucosylceramide synthase inhibitors” (Genzyme Corporation, priority 2007, dated 2012):
Where two headings read alike, the source gives them in different places.

System: GM3
Test: GM3 Elisa assay
Format: cell-based
Conditions: B16-FO cells, read-out: IC50_uM_Mean
In short: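 Murine B16-FO melanoma cells attached 6 h on collagen, then exposed to compounds for 2 days at 37 °C. After formaldehyde fixation, cell-surface GM3 (NeuAc) was detected by anti-GM3 IgM and peroxidase anti-mouse IgM with Quantablu fluorescence (Ex 325/Em 420).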

[1] = 48 h, Table 2, 2 days incubation
[2] = 48 h, Table 1, 2 days incubation

| SMILES | IC50 (Table 3 (IC 50 Values)) | other results |
| --- | --- | --- |
| COc1ccc(C(=O)CCCCC(=O)N[C@H](CN2CCCC2)[C@H](O)c2ccc(C(F)(F)F)cc2)cc1 [Compound 491] | 1000 to 3000 nM | – |
| O=C(CC12CC3CC(CC(C3)C1)C2)N[C@@H](CN1CCCC1)C(O)c1ccc2c(c1)OCCO2 (stereo partly drawn) [Compound 636] | 3000 to 10000 nM | – |
| CCCCCCCC(=O)N[C@H](CN1CCCC1)[C@H](OC)c1ccc2c(c1)OCCO2 [Compound 315] | – | IC50 [1]: 100 to 1000 nM |
| O=C(Cc1ccc(OC(F)(F)F)cc1)N[C@H](CN1CCCC1)[C@H](O)c1ccc2c(c1)OC(F)(F)C(F)(F)O2 [Compound 398] | 3000 to 10000 nM | – |
| CCCCCCCCCCCCCCCC(=O)N[C@H](CN(C)Cc1ccccc1)[C@H](O)c1ccc2c(c1)OCCO2 [Compound 682] | 3000 to 10000 nM | – |
| COc1ccc(C(=O)CCCCC(=O)N[C@H](CN2CCCC2)[C@H](O)c2ccc(OCCCOc3ccc(F)cc3)cc2)cc1 [Compound 431] | ≤ 100 nM | – |
| COc1ccc(C(=O)CCCCC(=O)N[C@H](CN2CCCC2)[C@H](O)c2ccc(OCc3ccccc3)cc2)cc1 [Compound 706] | ≤ 100 nM | – |
| CCCCCCCC(=O)N[C@H](CN1CCCC1)[C@H](O)CCCCCCC [Compound 311] | – | IC50 [1]: 1000 to 3000 nM |
| COc1ccc(C(=O)CCCCCC(=O)N[C@H](CN2[C@H](C)CC[C@H]2C)[C@H](O)c2ccc3c(c2)OCCO3)cc1 [Compound 548] | 1000 to 3000 nM | – |
| C[C@H](NC(=O)N[C@H](CN1CCCC1)[C@H](O)c1ccc2c(c1)OCCO2)c1cccc2ccccc12 [Compound 71, 1-((1R,2R)-1-(2,3-dihydrobenzo [β][1,4]dioxin-6-yl)-1-hydroxy-3-(pyrrolidin-1-yl)propan-2-yl)-3-((S)-1-(naphthalen-1-yl)ethyl)urea] | – | IC50 [2]: 100 to 1000 nM |
| CCCCOc1ccc([C@@H](O)[C@@H](CN2CC[C@@H](F)C2)NC(=O)CCCCC(=O)c2ccc(F)cc2)cc1 [Compound 658] | 100 to 1000 nM | – |
| CCCCCCCC(=O)N[C@H](CN1CCC[C@H]1C)[C@@H](O)c1ccc2c(c1)OCCO2 [Compound 530] | 3000 to 10000 nM | – |
| CCCCOc1ccc([C@@H](O)[C@@H](CN2CCCC2)NC(=O)CCCCC(=O)c2ccc(OC)cc2)cc1 [Compound 434] | ≤ 100 nM | – |
| CCCCCCCC(=O)N[C@H](CN1[C@H](C)CC[C@H]1C)[C@H](O)c1ccc2c(c1)OCCO2 [Compound 549] | 3000 to 10000 nM | – |
| O=C(CCOc1cc(Cl)ccc1Cl)N[C@H](CN1CCCC1)[C@H](O)c1ccc2c(c1)OCCO2 [Compound 55, 3-(2,5-dichlorophenoxy)-N-((1R,2R)-1-(2,3-dihydrobenzo[β][1,4]dioxin-6-yl)-1-hydroxy-3-(pyrrolidin-1-yl)propan-2-yl)propanamide] | – | IC50 [2]: ≤ 100 nM |
| O=C(CCCCOC1CCOCC1)N[C@H](CN1CCCC1)[C@H](O)c1ccc2c(c1)OCCO2 [Compound 554] | 3000 to 10000 nM | – |
| CCCCCCCC(=O)N[C@H](CN1C(C)CCC1C)[C@H](O)c1ccc2c(c1)OCCO2 (stereo partly drawn) [Compound 314] | – | IC50 [1]: 1000 to 3000 nM |
| CCCCCCCCCCCCCCCC(=O)N[C@H](CN1CCOCC1)[C@H](O)c1ccccc1 [Compound 317] | – | IC50 [1]: 100 to 1000 nM |
| CCCCCCCC(=O)N[C@H](CN1CC[C@@H](F)C1)[C@H](O)c1ccc2c(c1)OCCO2 [Compound 504] | 100 to 1000 nM | – |
| CCCCCCCC(=O)N[C@H](CN1CCCC1)[C@H](O)c1ccc2c(c1)OC(F)(F)C(F)(F)O2 [Compound 400] | 3000 to 10000 nM | – |

| SMILES | IC50 (Table 3 (IC 50 Values)) | other results |
| --- | --- | --- |
| COc1ccc(C(=O)CCCCCC(=O)N[C@@H](CN(C)C(C)C)[C@@H](O)c2ccc3c(c2)OCCO3)cc1 [Compound 468] | ≤ 100 nM | – |
| CCCCOc1ccc([C@@H](O)[C@@H](CN2CC[C@H](O)C2)NC(=O)CCCCCCCOC)cc1 [Compound 586] | ≤ 100 nM | – |
| COc1ccc(C(=O)CCCC(=O)N[C@H](CN2CCCC2)[C@H](O)c2ccc(C(F)(F)F)cc2)cc1 [Compound 490] | 3000 to 10000 nM | – |
| O=C(N[C@H](CN1CCCC1)[C@H](OC(=O)c1ccc(-c2ccccn2)s1)c1ccc2c(c1)OCCO2)c1ccc(-c2ccccn2)s1 [Compound 242] | – | IC50 [1]: 3000 to 10000 nM |
| O=C(CCCCC(=O)C1CCC(F)(F)CC1)N[C@H](CN1CCCC1)[C@H](O)c1ccc2c(c1)OCCO2 [Compound 558] | 1000 to 3000 nM | – |
| O=C(Cc1ccc(OC(F)(F)F)cc1)N[C@H](CN1CCCC1)[C@H](O)c1ccc2c(c1)OC(F)(F)O2 [Compound 410] | 3000 to 10000 nM | – |
| COc1ccc(C(=O)CCCCCC(=O)N[C@H](CN2CC[C@H](OC)C2)[C@H](O)c2ccc3c(c2)OCCO3)cc1 [Compound 583] | 3000 to 10000 nM | – |
| CC(C)Oc1ccc(C(=O)NCCCCCC(=O)N[C@H](CN2CCCC2)[C@H](O)c2ccc3c(c2)OCCO3)cc1 [Compound 690] | ≤ 100 nM | – |
| COc1ccc(OCCC(=O)N[C@H](CN2CCCC2)[C@H](O)c2ccc(Cl)cc2)cc1 [Compound 382] | 100 to 1000 nM | – |
| CC(=O)c1ccc(OCCCC(=O)N[C@H](CN2CCCC2)[C@H](O)c2ccc(OC(C)C)cc2)cc1 [Compound 724] | 100 to 1000 nM | – |
| COCCc1ccc([C@@H](O)[C@@H](CN2CCCC2)NC(=O)CCOc2ccc(OC)cc2)cc1 [Compound 356] | 1000 to 3000 nM | – |
| COc1ccc(C(=O)CCCCCC(=O)N[C@H](CN2CCC[C@@H]2C)[C@@H](O)c2ccc3c(c2)OCCO3)cc1 [Compound 525] | ≤ 100 nM | – |
| CCCCCCCC(=O)N[C@H](CN1CCCC1)[C@H](O)c1ccc2c(c1)OC(F)(F)O2 [Compound 411] | 3000 to 10000 nM | – |
| CCCCCCCCCCCCCCCC(=O)N[C@H](CNCc1ccccc1)[C@H](O)c1ccc2c(c1)OCCO2 [Compound 678] | 3000 to 10000 nM | – |
| CCCCCCCC(=O)N[C@H](CNCCCC)[C@H](O)c1ccc2c(c1)OCCO2 [Compound 310] | – | IC50 [1]: 1000 to 3000 nM |
| O=C(CCCCC(=O)c1ccc(F)cc1)N[C@H](CN1CC[C@H](O)C1)[C@H](O)c1ccc2c(c1)OCCO2 [Compound 654] | 1000 to 3000 nM | – |
| COCCOc1ccc(C(=O)CCCC(=O)N[C@H](CN2CC[C@H](O)C2)[C@H](O)c2ccc(OC(C)C)cc2)cc1 [Compound 737] | 100 to 1000 nM | – |
| COC[C@@H]1CCCN1C[C@@H](NC(=O)CCOc1ccc(OC)cc1)[C@@H](O)c1ccc2c(c1)OCCO2 [Compound 535] | 3000 to 10000 nM | – |
| O=C(CCCCCC1CCOCC1)N[C@H](CN1CC[C@@H](F)C1)C(O)c1cccc(OCc2ccccc2)c1 (stereo partly drawn) [Compound 574] | 100 to 1000 nM | – |
| CCCCOc1ccc([C@@H](O)[C@@H](CN2CC[C@@H](F)C2)NC(=O)CCCCC(=O)C2CCCCC2)cc1 [Compound 585] | 100 to 1000 nM | – |

| SMILES | IC50 (Table 3 (IC 50 Values)) | other results |
| --- | --- | --- |
| COCCCCCCCC(=O)N[C@H](CN1CC[C@H](O)C1)[C@H](O)c1ccc(OC(C)C)cc1 [Compound 456] | ≤ 100 nM | – |
| O=C(Nc1ccc(C(F)(F)F)cc1)N[C@H](CN1CCCC1)[C@H](O)c1ccc2c(c1)OCCO2 [Compound 81, 1-((1R,2R)-1-(2,3-dihydrobenzo[β][1,4]dioxin-6-yl)-1-hydroxy-3-(pyrrolidin-1-yl)propan-2-yl)-3-(4-(trifluoromethyl)phenyl)urea] | – | IC50 [2]: 100 to 1000 nM |
| O=C(Cc1ccc(OC(F)(F)F)cc1)N[C@H](CN1CCCC1)[C@H](O)/C=C/c1ccccc1 [Compound 392] | 3000 to 10000 nM | – |
| O=C(CCOc1ccnc2ccccc12)N[C@H](CN1CCCC1)[C@H](O)c1ccc2c(c1)OCCO2 [Compound 692] | 100 to 1000 nM | – |
| COc1ccc(CCC(=O)N[C@H](CN2CCCC2CN2CCCC2)[C@H](O)c2ccc3c(c2)OCCO3)cc1Cl (stereo partly drawn) [Compound 245] | – | IC50 [1]: 3000 to 10000 nM |
| CCCCCCCC(=O)N[C@H](CN1C(C)CCCC1C)[C@H](O)c1ccc2c(c1)OCCO2 (stereo partly drawn) [Compound 595] | 3000 to 10000 nM | – |
| COc1ccc(OCCC(=O)N[C@H](CN2CCCC2)[C@H](O)c2ccc(OC)c(C)c2)cc1 [Compound 391] | 100 to 1000 nM | – |
| COc1cccc(OCCC(=O)N[C@H](CN2CCCC2)[C@H](O)c2ccc3c(c2)OCCO3)c1 [Compound 54, N-((1R,2R)-1-(2,3-dihydrobenzo[β][1,4]dioxin-6-yl)-1-hydroxy-3-(pyrrolidin-1-yl)propan-2-yl)-3-(3-methoxyphenoxy)propanamide] | – | IC50 [2]: ≤ 100 nM |
| CCCCCCOc1ccc([C@@H](O)[C@@H](CN2CC[C@@H](F)C2)NC(=O)CCOc2ccc(Cl)cc2)cc1 [Compound 731] | ≤ 100 nM | – |
| CCCCCCCC(=O)N[C@H](CN1CC[C@H](F)C1)[C@H](O)c1ccc2c(c1)OCCO2 [Compound 510] | 3000 to 10000 nM | – |
| CC(O)(CCCCCC(=O)N[C@H](CN1CCCC1)[C@H](O)c1ccc2c(c1)OCCO2)C1CC1 (stereo partly drawn) [Compound 629] | 100 to 1000 nM | – |
| O=C(CCCC(=O)c1ccccc1)N[C@H](CN1CCCC1)[C@H](O)c1ccc2c(c1)OCCO2 [Compound 113, N-((1R,2R)-1-(2,3-dihydrobenzo[β][1,4]dioxin-6-yl)-1-hydroxy-3-(pyrrolidin-1-yl)propan-2-yl)-5-oxo-5-phenylpentanamide] | – | IC50 [2]: 100 to 1000 nM |
| COc1ccc([C@@H](O)[C@@H](CN2CCCC2)NC(=O)CCCCCC(C)=O)cc1 [Compound 664] | 1000 to 3000 nM | – |
| CCCCCCCC(=O)N[C@H](CN1CCCC1)[C@H](O)c1ccc(OC(F)(F)F)cc1 [Compound 667] | 100 to 1000 nM | – |
| COCCOc1ccc(C(=O)CCCC(=O)N[C@H](CN2CCCC2)[C@H](O)c2ccc(OC(C)C)cc2)cc1 [Compound 451] | 100 to 1000 nM | – |
| O=C(CCOc1ccccc1F)N[C@H](CN1CCCC1)[C@H](O)c1ccc2c(c1)OCCO2 [Compound 60, N-((1R,2R)-1-(2,3-dihydrobenzo[β][1,4]dioxin-6-yl)-1-hydroxy-3-(pyrrolidin-1-yl)propan-2-yl)-3-(2-fluorophenoxy)propanamide] | – | IC50 [2]: ≤ 100 nM |
| COc1ccc(C(=O)CCCCCC(=O)N[C@H](CN2CCCC2)[C@H](O)c2cc(OC)c(OC)c(OC)c2)cc1 [Compound 668] | 1000 to 3000 nM | – |
| O=C(CCCCCC(=O)c1ccc(F)cc1)N[C@H](CN1CC[C@H](O)C1)[C@H](O)c1ccc2c(c1)OCCO2 [Compound 653] | ≤ 100 nM | – |
| COc1ccc(C(=O)CCCCCC(=O)N[C@H](CN2CC(O)C2)[C@H](O)c2ccc3c(c2)OCCO3)cc1 [Compound 600] | 1000 to 3000 nM | – |
| COc1ccc(OCCC(=O)N[C@H](CN2CCC[C@@H]2C)[C@@H](O)c2ccc3c(c2)OCCO3)cc1 [Compound 526] | 100 to 1000 nM | – |
